Here are results for 48 compounds from patent US20240090503A1, “FUNGICIDAL OXADIAZOLES AND THEIR MIXTURES” (FMC CORPORATION, priority 2020, published 2024).

In test [1] the test system is Phakopsora pachyrhizi (the causal agent of Asian soybean rust). As to the kind of experiment: Test A: preventive spray on soybean seedlings, Asian soybean rust, visual disease rating. The class given is in vivo. The conditions noted are these: soybean seedlings. In outline:
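Compound in acetone/water (50/50) with 250 ppm PEG400 sprayed to run-off on soybean seedlings; inoculated next day with Phakopsora pachyrhizi spores. Held 24 h at 22° C in saturated atmosphere, then 8 days in a 22° C growth chamber before visual rating as % disease control relative to controls.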

In test [2] the test system is Puccinia recondita f. sp. tritici (the causal agent of wheat leaf rust). The test can be described thus: Test C: preventive spray on wheat seedlings, wheat leaf rust, visual disease rating. The class given is in vivo. The conditions noted are these: wheat seedlings. In outline: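 Wheat seedlings sprayed to run-off with compound in acetone/water (50/50) with 250 ppm PEG400, then inoculated with spores the following day. After 24 h saturated humidity at 20° C. and 6 days in growth chamber at 20° C., disease rated visually as % control relative to untreated controls.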

The mark [3] stands for this setting: test suspension 10 ppm, 100 = 100% disease control, 0 = no control.
Where [4] appears, read: 10 ppm test suspension, 100 = 100% disease control, 0 = no control.

On to `CON=C(COC(=O)c1cnn(Cc2ccc(-c3noc(C(F)(F)F)n3)cc2)c1)c1ccccc1` [compound 245], for which, in test [1] (setting [3]), the “Test A disease control rating” value is listed as 100%. Moreover, the “Test C disease control rating” value in test [2] (test suspension 10 ppm) is 86%.
For `CCOC(=O)c1cnn(C(C)c2ccc(-c3noc(C(F)(F)F)n3)s2)c1` (stereo not drawn) [compound 246], the “Test A disease control rating” value in test [1] (setting [3]) was 100%. In addition, the “Test C disease control rating” value in test [2] (test suspension 10 ppm) was 100%.
Take `CCOC(=O)c1cnn(C(C)c2ccc(-c3noc(C(F)(F)F)n3)s2)c1` (stereo not drawn) [compound 247]: the “Test A disease control rating” value in test [1] (setting [3]) is on record as 100%. Further, the “Test C disease control rating” value in test [2] (test suspension 10 ppm) is recorded as 100%.
Take `CCCOC(=O)c1cnn(C(C)c2ccc(-c3noc(C(F)(F)F)n3)s2)c1` (stereo not drawn) [compound 248]: the “Test A disease control rating” value in test [1] (setting [3]) was 100%. The “Test C disease control rating” value in test [2] (test suspension 10 ppm) is given as 100%.
Consider `CCCOC(=O)c1cnn(C(C)c2ccc(-c3noc(C(F)(F)F)n3)s2)c1` (stereo not drawn) [compound 249], for which the “Test A disease control rating” value in test [1] (setting [3]) is 100%. Further, the “Test C disease control rating” value in test [2] (test suspension 10 ppm) worked out at 100%.
On to `CCCOC(=O)c1cnn(Cc2cc(-c3noc(C(F)(F)F)n3)cs2)c1` [compound 250], for which the “Test A disease control rating” value in test [1] (setting [3]) is 100%. Also, the “Test C disease control rating” value in test [2] (test suspension 10 ppm) stood at 74%.
On the same counts, the results for `CC(C)OC(=O)c1cnn(Cc2cc(-c3noc(C(F)(F)F)n3)cs2)c1` [compound 251] are 100% and 74%.
With `Cn1c(C(F)(F)F)nn(Cc2ccc(-c3noc(C(F)(F)F)n3)cc2)c1=O` [compound 267], the “Test A disease control rating” value in test [1] (test suspension 50 ppm) is given as 99%. The “Test C disease control rating” value in test [2] (test suspension 50 ppm) came out at 74%.
Turning to `CCOc1ccccc1OCCOC(=O)c1cnn(Cc2ccc(-c3noc(C(F)(F)F)n3)cc2)c1` [compound 268], in test [1] (setting [3]), the “Test A disease control rating” value worked out at 100%. Further, the “Test C disease control rating” value in test [2] (test suspension 10 ppm) is 86%.
On the same counts, the results for `CC1(COC(=O)c2cnn(Cc3ccc(-c4noc(C(F)(F)F)n4)cc3)c2)COC1` [compound 269] are 100% and 100%.
The corresponding values for `CC(C)ONC(=O)c1cnn(Cc2ccc(-c3noc(C(F)(F)F)n3)cc2)c1` [compound 270] are 100% and 100%.
On the same counts, the results for `CCOC(=O)c1cnn(Cc2cc(-c3noc(C(F)(F)F)n3)cs2)c1` [compound 271] are 99% and 68%.
Consider `CONC(=O)c1cnn(Cc2ccc(-c3noc(C(F)(F)F)n3)cc2)c1` [compound 272], for which, in test [1] (setting [3]), the “Test A disease control rating” value amounted to 100%. Also, the “Test C disease control rating” value in test [2] (test suspension 10 ppm) worked out at 100%.
For the compound `CC(C)(C)ONC(=O)c1cnn(Cc2ccc(-c3noc(C(F)(F)F)n3)cc2)c1` [compound 273], the “Test A disease control rating” value in test [1] (setting [3]) is listed as 100%. For the same compound, the “Test C disease control rating” value in test [2] (test suspension 10 ppm) came to 100%.
For `N#CCCCOC(=O)c1cnn(Cc2ccc(-c3noc(C(F)(F)F)n3)cc2)c1` [compound 274], in test [1] (setting [3]), the “Test A disease control rating” value was 100%. For the same compound, the “Test C disease control rating” value in test [2] (test suspension 10 ppm) stood at 100%.
Consider `COC(=O)C=CCOC(=O)c1cnn(Cc2ccc(-c3noc(C(F)(F)F)n3)cc2)c1` [compound 275], for which, in test [1] (setting [3]), the “Test A disease control rating” value is 100%. Moreover, the “Test C disease control rating” value in test [2] (test suspension 10 ppm) came out at 100%.
Regarding `O=C1c2ccnn2CCN1Cc1ccc(-c2noc(C(F)(F)F)n2)cc1` [compound 297], in test [1] (setting [3]), the “Test A disease control rating” value is reported as 100%. For the same compound, in test [2] (test suspension 10 ppm), the “Test C disease control rating” value is reported as 93%.
On the same counts, the results for `O=C(OCC#Cc1ccccc1)c1cnn(Cc2ccc(-c3noc(C(F)(F)F)n3)cc2)c1` [compound 299] are 100% and 86%.
`CC(C#N)OC(=O)c1cnn(Cc2ccc(-c3noc(C(F)(F)F)n3)cc2)c1` (stereo not drawn) [compound 300]: the “Test A disease control rating” value in test [1] (setting [3]) is 94%. Further, the “Test C disease control rating” value in test [2] (test suspension 10 ppm) turned out to be 9%.
On the same counts, the results for `N#Cc1ccc(COC(=O)c2cnn(Cc3ccc(-c4noc(C(F)(F)F)n4)cc3)c2)cc1` [compound 301] are 100% and 100%.
On the same counts, the results for `CCOC(=O)c1cn(Cc2ccc(-c3noc(C(F)(F)F)n3)cc2)nn1` [compound 303] are 100% and 100%.
The corresponding values for `CCOC(=O)c1cnn(Cc2ccc(-c3noc(C(F)(F)F)n3)cc2F)c1` [compound 304] are 100% and 100%.
Regarding `CCOC(=O)c1cnn(CCOc2ccc(-c3noc(C(F)(F)F)n3)cc2)c1` [compound 308], the “Test A disease control rating” value in test [1] (setting [3]) turned out to be 0%. The “Test C disease control rating” value in test [2] (test suspension 10 ppm) worked out at 0%.
As for `COc1ccc(C(O)c2ccc(-c3noc(C(F)(F)F)n3)cc2)cc1` (stereo not drawn) [compound 309], the “Test A disease control rating” value in test [1] (test suspension 50 ppm) worked out at 100%. Also, the “Test C disease control rating” value in test [2] (test suspension 50 ppm) is listed as 68%.
Consider `CCOC(=O)c1cnn(Cc2cc(OC)c(-c3noc(C(F)(F)F)n3)s2)c1` [compound 336], for which the “Test A disease control rating” value in test [1] (setting [3]) stood at 0%. Besides, the “Test C disease control rating” value in test [2] (test suspension 10 ppm) was found to be 0%.
For the compound `CCC#CCOC(=O)c1cnn(Cc2ccc(-c3noc(C(F)(F)F)n3)cc2)c1` [compound 339], the “Test A disease control rating” value in test [1] (setting [3]) amounted to 100%. Besides, in test [2] (test suspension 10 ppm), the “Test C disease control rating” value stood at 98%.
As to `CN1CCCC1COC(=O)c1cnn(Cc2ccc(-c3noc(C(F)(F)F)n3)cc2)c1` (stereo not drawn) [compound 340], the “Test A disease control rating” value in test [1] (setting [3]) was 100%. Also, the “Test C disease control rating” value in test [2] (test suspension 10 ppm) turned out to be 94%.
Consider `COC(=O)c1cccc2c1cnn2Cc1ccc(-c2noc(C(F)(F)F)n2)cc1` [compound 341], for which the “Test A disease control rating” value in test [1] (setting [3]) was found to be 100%. In test [2] (test suspension 10 ppm), the “Test C disease control rating” value is reported as 100%.
With `C[Si](C)(C)C#CCOC(=O)c1cnn(Cc2ccc(-c3noc(C(F)(F)F)n3)cc2)c1` [compound 348], the “Test A disease control rating” value in test [1] (setting [3]) came to 100%. For the same compound, the “Test C disease control rating” value in test [2] (test suspension 10 ppm) turned out to be 96%.
For the compound `CC(=O)COC(=O)c1cnn(Cc2ccc(-c3noc(C(F)(F)F)n3)cc2)c1` [compound 349], the “Test A disease control rating” value in test [1] (setting [3]) came to 100%. Besides, the “Test C disease control rating” value in test [2] (test suspension 10 ppm) worked out at 100%.
Regarding `CON=C(C)COC(=O)c1cnn(Cc2ccc(-c3noc(C(F)(F)F)n3)cc2)c1` [compound 350], the “Test A disease control rating” value in test [1] (setting [3]) is reported as 100%. Besides, the “Test C disease control rating” value in test [2] (test suspension 10 ppm) is 99%.
The corresponding values for `FC(F)(F)c1nc(-c2ccc(CN3CCc4ccccc4C3)cc2)no1` [compound 351] are 92% and 67%.
As for `FC(F)(F)c1nc(-c2ccc(CCCn3ccc(-c4ccccc4)n3)cc2)no1` [compound 360], the “Test A disease control rating” value in test [1] (setting [3]) amounted to 100%. The “Test C disease control rating” value in test [2] (test suspension 10 ppm) stood at 68%.
On to `FC(F)(F)c1nc(-c2ccc(CCCn3ccc(-c4ccc(Cl)cc4)n3)cc2)no1` [compound 361], for which the “Test A disease control rating” value in test [1] (setting [3]) is 100%. The “Test C disease control rating” value in test [2] (test suspension 10 ppm) is 0%.
As to `CCOC(=O)c1cnn(COCc2ccc(-c3noc(C(F)(F)F)n3)cc2)c1` [compound 362], the “Test A disease control rating” value in test [1] (test suspension 50 ppm) turned out to be 100%. Moreover, the “Test C disease control rating” value in test [2] (test suspension 50 ppm) was 100%.
As for `O=C(O)c1cnn(CCCc2ccc(-c3noc(C(F)(F)F)n3)cc2)c1` [compound 363], the “Test A disease control rating” value in test [1] (test suspension 50 ppm) was determined as 100%. Also, the “Test C disease control rating” value in test [2] (test suspension 50 ppm) is 100%.
Turning to `CCOC(=O)C1=NOC(Cc2ccc(-c3noc(C(F)(F)F)n3)s2)C1` (stereo not drawn) [compound 366], in test [1] (test suspension 50 ppm), the “Test A disease control rating” value stood at 100%. Besides, the “Test C disease control rating” value in test [2] (test suspension 50 ppm) was 100%.
Consider `O=C(O)C1=NOC(Cc2ccc(-c3noc(C(F)(F)F)n3)s2)C1` (stereo not drawn) [compound 367], for which the “Test A disease control rating” value in test [1] (test suspension 50 ppm) is listed as 96%. In addition, the “Test C disease control rating” value in test [2] (test suspension 50 ppm) came out at 67%.
The corresponding values for `CNC(=O)C1=NOC(Cc2ccc(-c3noc(C(F)(F)F)n3)s2)C1` (stereo not drawn) [compound 368] are 100% and 100%.
As to `CCNC(=O)C1=NOC(Cc2ccc(-c3noc(C(F)(F)F)n3)s2)C1` (stereo not drawn) [compound 369], in test [1] (test suspension 50 ppm), the “Test A disease control rating” value was found to be 100%. Further, the “Test C disease control rating” value in test [2] (test suspension 50 ppm) is 100%.
As to `C#CCOC(=O)c1cnn(CCCc2ccc(-c3noc(C(F)(F)F)n3)cc2)c1` [compound 374], in test [1] (setting [3]), the “Test A disease control rating” value is 100%. The “Test C disease control rating” value in test [2] (test suspension 10 ppm) is listed as 96%.
Regarding `Cc1ccc(F)cc1OCc1ccc(-c2noc(C(F)(F)F)n2)s1` [compound 375], in test [1] (setting [3]), the “Test A disease control rating” value stood at 100%. Moreover, the “Test C disease control rating” value in test [2] (test suspension 10 ppm) amounted to 98%.
The corresponding values for `CCOC(=O)CNC(=O)c1cnn(Cc2ccc(-c3noc(C(F)(F)F)n3)cc2)c1` [compound 378] are 100% and 98%.
Regarding `CN(CC#N)C(=O)c1cnn(Cc2ccc(-c3noc(C(F)(F)F)n3)cc2)c1` [compound 379], the “Test A disease control rating” value in test [1] (setting [4]) was 100%. For the same compound, the “Test C disease control rating” value in test [2] (setting [4]) is given as 97%.
As for `CCONC(=O)c1cnn(Cc2ccc(-c3noc(C(F)(F)F)n3)cc2)c1` [compound 380], the “Test A disease control rating” value in test [1] (setting [4]) worked out at 100%. In test [2] (setting [4]), the “Test C disease control rating” value stood at 100%.
As for `Nc1cnn(Cc2ccc(-c3noc(C(F)(F)F)n3)cc2)c1` [compound 381], in test [1] (setting [4]), the “Test A disease control rating” value stood at 0%. The “Test C disease control rating” value in test [2] (setting [4]) worked out at 0%.
Turning to `O=[N+]([O-])c1cnn(Cc2ccc(-c3noc(C(F)(F)F)n3)cc2)c1` [compound 382], the “Test A disease control rating” value in test [1] (setting [4]) is on record as 100%. Besides, in test [2] (setting [4]), the “Test C disease control rating” value turned out to be 96%.
On the same counts, the results for `FC(F)(F)c1nc(-c2ccc(Cn3cc(I)cn3)cc2)no1` [compound 383] are 71% and 68%.
